Results reported in patent US6914045B2, “Glycopeptide antibiotics” (Wyeth Holdings Corporation, priority 2001, dated 2005).
Values after ≈ are worked out from the molar mass of the structure shown.

How the values were obtained:
Enterococcus sp. = test: in vitro antibacterial evaluation, MIC by broth dilution; format: cell-based; conditions: broth dilution, 18 hours at 35° C.
How it was run: (§1)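 Inoculum 5×10^5 CFU/mL; concentrations 64 to 0.06 μg/mL; MIC defined as lowest inhibitory level. Conducted by broth dilution under NCCLS guidelines.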

Staphylococcus sp. = test: as above; format: cell-based; conditions: broth dilution, 18 hours at 35° C.
How it was run: as §1

Streptococcus sp. = test: as above; format: cell-based; conditions: broth dilution, 18 hours at 35° C.
How it was run: as §1

[1] = test system: Staphylococcus aureus-SMITH (GC 4543); test: acute lethal infection in mice; format: in vivo; conditions: acute lethal infection, female CD-1 mice, intraperitoneal challenge, intravenous 30 min. after infection, 7 day survival
How it was run: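 ED50 from 7 day survival ratios pooled over 3 separate tests. Female CD-1 mice, 20+/−2 gm, ip bacterial challenge (trypticase soy broth or hog gastric mucin) lethal to untreated controls in 24-48 hr; iv dosing 30 min after infection in saline or 5% dextrose, n=5/dose.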

[2] = anatomic pathology (histopathology of heart and kidney) in mice; format: in vivo; conditions: CD-1 mice, 20 mg/kg intravenously daily for 9 days, necropsy day 10, microscopic histopathology
Experimental: Samples of tissues from necropsied mice were formalin-fixed, paraffin-embedded, sectioned, stained with hematoxylin and eosin, and examined microscopically. Histopathologic findings were recorded. These findings were subjectively graded on a scale corresponding to slight, mild, moderate, marked and severe as compared to untreated controls.

Escherichia coli = test: in vitro antibacterial evaluation, MIC by broth dilution; format: cell-based; conditions: 18 hours at 35° C.

COc1ccc2cc(COC3C(CO)OC(OC4C(CO)OC(Oc5ccc(CC6NC(=O)C(C(C)c7ccccc7)NC(=O)CNC(=O)C(CO)NC(=O)C(C(O)C7CNC(=N)N7C7OC(CO)C(O)C(O)C7O)NC(=O)C(C(O)C7CNC(=N)N7)NC6=O)cc5)C(O)C4O)C(O)C3O)ccc2c1 (stereo not drawn) [Example 230a, Cyclo[glycyl-β-methylphenylalanyl-O-[4-O-[4-O-[(6-methoxy-2-naphthyl)methyl]hexopyranosyl]hexopyranosyl]tyrosyl-3-(2-iminoimidazolidin-4-yl)seryl-3-(3-hexopyranosyl-2-iminoimidazolidin-4-yl)serylseryl]]
MIC Enterococcus avium (GC 4558) (Enterococcus sp.): 2 to 4 µg/mL | MIC Enterococcus faecalis (ATCC 29212) (Enterococcus sp.): 2 to 4 µg/mL | MIC Enterococcus faecalis (GC 2242) (Enterococcus sp.): 2 to 4 µg/mL | MIC Enterococcus faecalis (GC 2691) (Enterococcus sp.): 2 to 4 µg/mL | MIC Enterococcus faecalis (GC 3059) (Enterococcus sp.): 2 to 4 µg/mL | MIC Enterococcus faecalis (GC 4552) (Enterococcus sp.): 2 to 4 µg/mL | MIC Enterococcus faecalis (GC 4553) (Enterococcus sp.): 2 to 4 µg/mL | MIC Enterococcus faecalis (GC 4554) (Enterococcus sp.): 2 to 4 µg/mL | MIC Enterococcus faecalis (GC 6189) (Enterococcus sp.): 1 to 4 µg/mL | MIC Enterococcus faecium (GC 2243) (Enterococcus sp.): 2 to 4 µg/mL | MIC Enterococcus faecium (GC 4556) (Enterococcus sp.): 2 to 4 µg/mL | MIC Enterococcus faecium (GC 4557) (Enterococcus sp.): 1 to 2 µg/mL | MIC Enterococcus faecalis (ATCC 29212) (Enterococcus sp.; inoculum 5×10^5 CFU/mL, strain ATCC 29212): 2 to 4 µg/mL | MIC Enterococcus faecalis (GC 2242) (Enterococcus sp.; inoculum 5×10^5 CFU/mL, strain GC 2242): 2 to 4 µg/mL | MIC Enterococcus faecium (GC 2243) (Enterococcus sp.; inoculum 5×10^5 CFU/mL, strain GC 2243): 2 to 4 µg/mL | MIC Enterococcus faecalis (GC 2691) (Enterococcus sp.; inoculum 5×10^5 CFU/mL, strain GC 2691): 2 to 4 µg/mL | MIC Enterococcus faecalis (GC 3059) (Enterococcus sp.; inoculum 5×10^5 CFU/mL, strain GC 3059): 2 to 4 µg/mL | MIC Enterococcus faecalis (GC 4552) (Enterococcus sp.; inoculum 5×10^5 CFU/mL, strain GC 4552): 2 to 4 µg/mL | MIC Enterococcus faecalis (GC 4553) (Enterococcus sp.; inoculum 5×10^5 CFU/mL, strain GC 4553): 2 to 4 µg/mL | MIC Enterococcus faecalis (GC 4554) (Enterococcus sp.; inoculum 5×10^5 CFU/mL, strain GC 4554): 2 to 4 µg/mL | MIC Enterococcus faecium (GC 4556) (Enterococcus sp.; inoculum 5×10^5 CFU/mL, strain GC 4556): 2 to 4 µg/mL | MIC Enterococcus faecium (GC 4557) (Enterococcus sp.; inoculum 5×10^5 CFU/mL, strain GC 4557): 1 to 2 µg/mL | MIC Enterococcus avium (GC 4558) (Enterococcus sp.; inoculum 5×10^5 CFU/mL, strain GC 4558): 2 to 4 µg/mL | MIC Enterococcus faecalis (GC 6189) (Enterococcus sp.; inoculum 5×10^5 CFU/mL, strain GC 6189): 1 to 4 µg/mL | MIC Coagulase Negative Staphylococcus (GC 4547) (Staphylococcus sp.): 0.5 to 2 µg/mL | MIC Coagulase Negative Staphylococcus (GC 4548) (Staphylococcus sp.): 0.12 to 0.5 µg/mL | MIC Coagulase Negative Staphylococcus (GC 4549) (Staphylococcus sp.): 0.12 to 0.5 µg/mL | MIC Coagulase Negative Staphylococcus (GC 4551) (Staphylococcus sp.): 0.25 to 1 µg/mL | MIC Coagulase Negative Staphylococcus (GC 6257) (Staphylococcus sp.): 0.25 to 0.5 µg/mL | MIC Staphylococcus aureus (ATCC 29213) (Staphylococcus sp.): 1 to 2 µg/mL | MIC Staphylococcus aureus (GC 1131) (Staphylococcus sp.): 0.5 to 2 µg/mL | MIC Staphylococcus aureus (GC 3051) (Staphylococcus sp.): 1 to 2 µg/mL | MIC Staphylococcus aureus (GC 3053) (Staphylococcus sp.): 1 to 2 µg/mL | MIC Staphylococcus aureus (GC 4541) (Staphylococcus sp.): 0.5 to 2 µg/mL | MIC Staphylococcus aureus (GC 4542) (Staphylococcus sp.): 0.25 to 2 µg/mL | MIC Staphylococcus aureus (GC 4544) (Staphylococcus sp.): 1 to 2 µg/mL | MIC Staphylococcus aureus (GC 4545) (Staphylococcus sp.): 0.5 to 1 µg/mL | MIC Staphylococcus aureus-SMITH (GC 4543) (Staphylococcus sp.): 0.5 to 2 µg/mL | MIC Staphylococcus haemolyticus (GC 4546) (Staphylococcus sp.): 0.25 to 1 µg/mL | MIC Staphylococcus aureus (ATCC 29213) (Staphylococcus sp.; strain ATCC 29213): 1 to 2 µg/mL | MIC Staphylococcus aureus (GC 1131) (Staphylococcus sp.; strain GC 1131): 0.5 to 2 µg/mL | MIC Staphylococcus aureus (GC 3051) (Staphylococcus sp.; strain GC 3051): 1 to 2 µg/mL | MIC Staphylococcus aureus (GC 3053) (Staphylococcus sp.; strain GC 3053): 1 to 2 µg/mL | MIC Staphylococcus aureus (GC 4541) (Staphylococcus sp.; strain GC 4541): 0.5 to 2 µg/mL | MIC Staphylococcus aureus (GC 4542) (Staphylococcus sp.; strain GC 4542): 0.25 to 2 µg/mL | MIC Staphylococcus aureus-SMITH (GC 4543) (Staphylococcus sp.; strain GC 4543): 0.5 to 2 µg/mL | MIC Staphylococcus aureus (GC 4544) (Staphylococcus sp.; strain GC 4544): 1 to 2 µg/mL | MIC Staphylococcus aureus (GC 4545) (Staphylococcus sp.; strain GC 4545): 0.5 to 1 µg/mL | MIC Staphylococcus haemolyticus (GC 4546) (Staphylococcus sp.; strain GC 4546): 0.25 to 1 µg/mL | MIC Coagulase Negative Staphylococcus (GC 4547) (Staphylococcus sp.; strain GC 4547): 0.5 to 2 µg/mL | MIC Coagulase Negative Staphylococcus (GC 4548) (Staphylococcus sp.; strain GC 4548): 0.12 to 0.5 µg/mL | MIC Coagulase Negative Staphylococcus (GC 4549) (Staphylococcus sp.; strain GC 4549): 0.12 to 0.5 µg/mL | MIC Coagulase Negative Staphylococcus (GC 4551) (Staphylococcus sp.; strain GC 4551): 0.25 to 1 µg/mL | MIC Coagulase Negative Staphylococcus (GC 6257) (Staphylococcus sp.; strain GC 6257): 0.25 to 0.5 µg/mL | MIC Streptococcus agalactiae (GC 4564) (Streptococcus sp.): <0.06 to 0.12 µg/mL | MIC Streptococcus pneumoniae (ATCC 6301) (Streptococcus sp.): <0.06 µg/mL | MIC Streptococcus pneumoniae (GC 1894) (Streptococcus sp.): <0.06 µg/mL | MIC Streptococcus pneumoniae (GC 4565) (Streptococcus sp.): <0.06 µg/mL | MIC Streptococcus pyogenes (GC 4563) (Streptococcus sp.): <0.06 to 0.25 µg/mL | MIC Streptococcus pneumoniae (ATCC 6301) (Streptococcus sp.; inoculum 5×10^5 CFU/mL, strain ATCC 6301): <0.06 µg/mL | MIC Streptococcus pneumoniae (GC 1894) (Streptococcus sp.; inoculum 5×10^5 CFU/mL, strain GC 1894): <0.06 µg/mL | MIC Streptococcus pyogenes (GC 4563) (Streptococcus sp.; inoculum 5×10^5 CFU/mL, strain GC 4563): <0.06 to 0.25 µg/mL | MIC Streptococcus agalactiae (GC 4564) (Streptococcus sp.; inoculum 5×10^5 CFU/mL, strain GC 4564): <0.06 to 0.12 µg/mL | MIC Streptococcus pneumoniae (GC 4565) (Streptococcus sp.; inoculum 5×10^5 CFU/mL, strain GC 4565): <0.06 µg/mL | median effective dose (ED50), Staphylococcus aureus-SMITH (GC 4543) [1]: 0.06 mg/kg | Anatomical Pathology (Day 10), Heart [2]: 0 | Anatomical Pathology (Day 10), Kidney [2]: + | MIC Escherichia coli (ATCC 25922) (Escherichia coli): 32 µg/mL (≈ 21.8 µM) | MIC Escherichia coli (GC 4559) (Escherichia coli): 32 µg/mL (≈ 21.8 µM) | MIC Escherichia coli (GC 4560) (Escherichia coli): 0.25 to 1 µg/mL
